Drawing on patent US20120095036A1, “NOVEL SUBSTITUTED INDAZOLE AND AZA-INDAZOLE DERIVATIVES AS GAMMA SECRETASE MODULATORS” (priority 2009, published 2012), this text covers IC50 for 18 compounds.

Some results are limits rather than exact numbers.

Holding throughout (format): cell-based
Experiment [1] relates to Aβ42. As to the kind of experiment: Method 1: Aβ42 sandwich ELISA on media of SKNBE2 cells carrying APP 695 wild type (γ-secretase-modulating activity). Particulars: SKNBE2 cells APP 695 wild type, 18 hours. The procedure:
(§1) Screening was carried out using SKNBE2 cells carrying the APP 695—wild type, grown in Dulbecco's Modified Eagle's Medium/Nutrient mixture F-12 (DMEM/NUT-mix F-12) (HAM) provided by Gibco (cat no. 31330-38) containing 5% Serum/Fe supplemented with 1% non-essential amino acids. Cells were grown to near confluency.
(§2) The screening was performed using the assay as described in Citron et al (1997) Nature Medicine 3: 67. Briefly, cells were plated in a 96-well plate at about 10^5 cells/ml one day prior to addition of compounds. Compounds were added to the cells in Ultraculture (Lonza, BE12-725F) supplemented with 1% glutamine (Invitrogen, 25030-024) for 18 hours. The media were assayed by two sandwich ELISAs, for Aβ42 and Aβtotal. Toxicity of the compounds was assayed by WST-1 cell proliferation reagent (Roche, 1 644 807) according to the manufacturer's protocol.
To quantify the amount of Aβ42 in the cell supernatant, commercially available Enzyme-Linked-Immunosorbent-Assay (ELISA) kits were used (Innotest® β-Amyloid(1-42), Innogenetics N.V., Ghent, Belgium). The Aβ42 ELISA was performed essentially according to the manufacturer's protocol. Briefly, the standards (dilutions of synthetic A131-42) were prepared in polypropylene Eppendorf with final concentrations of 8000 down to […] (½ dilution step). Samples, standards and blanks (100 μl) were added to the anti-Aβ42-coated plate supplied with the kit (the capture antibody selectively recognizes the C-terminal end of the antigen). The plate was allowed to incubate 3 h at 25° C. in order to allow formation of the antibody-amyloid complex. Following this incubation and subsequent wash steps a selective anti-A13-antibody conjugate (biotinylated 3D6) was added and incubated for a minimum of 1 hour in order to allow formation of the antibody-Amyloid-antibody-complex. After incubation and appropriate wash steps, a Streptavidine-Peroxidase-Conjugate was added, followed 30 minutes later by an addition of 3,3′,5,5′-tetramethylbenzidine (TMB)/peroxide mixture, resulting in the conversion of the substrate into a coloured product. This reaction was stopped by the addition of sulfuric acid (0.9 N) and the colour intensity was measured by means of photometry with an ELISA-reader with a 450 nm filter.
(§3) To obtain the values reported in Table 3a, the sigmoidal dose response curves were analysed by computerised curve-fitting, with percent of inhibition plotted against compound concentration. A 4-parameter equation (model 205) in XLfit was used to determine the IC50. The top and the bottom of the curve were fixed to 100 and 0, respectively, and the hill slope was fixed to 1. The IC50 represents the concentration of a compound that is required for inhibiting a biological effect by 50% (Here, it is the concentration where Aβ peptide level is reduced by 50%).
Background: An ELISA detects its analyte on a solid surface through an enzyme-linked reagent.

The subject of experiment [2] is Aβtotal. As to the kind of experiment: Method 1: Aβtotal sandwich ELISA on media of SKNBE2 cells carrying APP 695 wild type. Particulars: SKNBE2 cells APP 695 wild type, 18 hours. The procedure:
as §1, §2
To quantify the amount of Aβtotal in the cell supernatant, samples and standards were added to a 6E10-coated plate. The plate was allowed to incubate overnight at 4° C. in order to allow formation of the antibody-amyloid complex. Following this incubation and subsequent wash steps a selective anti-AB-antibody conjugate (biotinylated 4G8) was added and incubated for a minimum of 1 hour in order to allow formation of the antibody-Amyloid-antibody-complex. After incubation and appropriate wash steps, a Streptavidine-Peroxidase-Conjugate was added, followed 30 minutes later by an addition of Quanta Blu fluorogenic peroxidase substrate according to the manufacturer's instructions (Pierce Corp., Rockford, Il).
as §3

Experiment [3] concerns Aβ42. As to the kind of experiment: Method 2: Aβ42 Alphalisa on supernatant of SKNBE2 cells carrying APP 695 wild type. Particulars: SKNBE2 cells APP 695 wild type, overnight. The procedure:
(§4) Screening was carried out using SKNBE2 cells carrying the APP 695—wild type, grown in Dulbecco's Modified Eagle's Medium/Nutrient mixture F-12 (DMEM/NUT-mix F-12) (HAM) provided by Invitrogen (cat no. 10371-029) containing 5% Serum/Fe supplemented with 1% non-essential amino acids, 1-glutamine 2 mM, Hepes 15 mM, penicillin 50 U/ml (units/ml) en streptomycin 50 μg/ml. Cells were grown to near confluency.
(§5) The screening was performed using a modification of the assay as described in Citron et al (1997) Nature Medicine 3: 67. Briefly, cells were plated in a 384-well plate at 10^4 cells/well in Ultraculture (Lonza, BE12-725F) supplemented with 1% glutamine (Invitrogen, 25030-024), 1% non-essential amino acid (NEAA), penicillin 50 U/ml en streptomycin 50 μg/ml in the presence of test compound at different test concentrations. The cell/compound mixture was incubated overnight at 37° C., 5% CO2, The next day the media were assayed by two sandwich immuno-assays, for Aβ42 and Aβtotal.
(§6) Aβtotal and Aβ42 concentrations were quantified in the cell supernatant using the Aphalisa technology (Perkin Elmer). Alphalisa is a sandwich assay using biotinylated antibody attached to streptavidin coated donorbeads and antibody conjugated to acceptor beads. In the presence of antigen, the beads come into close proximity. The excitation of the donor beads provokes the release of singlet oxygen molecules that trigger a cascade of energy transfer in the acceptor beads, resulting in light emission. To quantify the amount of Aβ42 in the cell supernatant, monoclonal antibody specific to the C-terminus of Aβ42 (JRF/cAβ42/26) was coupled to the receptor beads and biotinylated antibody specific to the N-terminus of AB (JRF/AβN/25) was used to react with the donor beads. To quantify the amount of Aβtotal in the cell supernatant, monoclonal antibody specific to the N-terminus of AB (JRF/AβN/25) was coupled to the receptor beads and biotinylated antibody specific to the mid region of Aβ (biotinylated 4G8) was used to react with the donor beads.
(§7) To obtain the values reported in Table 3b, the data were calculated as percentage of the maximum amount of amyloid Beta 42 measured in the absence of the test compound. The sigmoidal dose response curves were analyzed using non-linear regression analysis with percentage of the control plotted against the log concentration of the compound. A 4-parameter equation was used to determine the IC50.

Experiment [4] concerns Aβtotal. As to the kind of experiment: Method 2: Aβtotal Alphalisa on supernatant of SKNBE2 cells carrying APP 695 wild type. Particulars: SKNBE2 cells APP 695 wild type, overnight. The procedure:
as §4, §5, §6, §7

For `CCCCn1cc2cccc(Nc3ccc(-n4cnc(C)c4)c(OC)c3)c2n1` [Compound 3, 2-butyl-N-[3-methoxy-4-(4-methyl-1H-imidazol-1-yl)phenyl]-2H-indazol-7-amine .2HCl], the IC50 (in general, the concentration at which inhibition is half-maximal) in the experiment on Aβ42 [1] (Homo sapiens) is 0.113 µM; with Aβtotal [2] (Homo sapiens), more than 3 µM; in the experiment on Aβ42 [3] (Homo sapiens) it was less than 3 µM; in the experiment on Aβtotal [4] (Homo sapiens), more than 3 µM.

Regarding `COc1cccc(-n2nc3c(Nc4ccc(-c5ocnc5C)nc4)cccc3c2C)c1` [Compound 4, 2-(3-methoxyphenyl)-3-methyl-N-[6-(4-methyl-5-oxazolyl)-3-pyridinyl]-2H-indazol-7-amine], the IC50 with Aβ42 [1] (Homo sapiens) is 0.055 µM; with Aβtotal [2] (Homo sapiens) it was more than 3 µM; with Aβ42 [3] (Homo sapiens), 0.022 µM; with Aβtotal [4] (Homo sapiens) it was 4.79 µM.

In the case of `COc1cccc(-n2nc3c(Nc4ccc(-n5cnc(C)n5)c(OC)c4)cccc3c2C)c1` [Compound 5, N-[3-methoxy-4-(3-methyl-1H-1,2,4-triazol-1-yl)phenyl]-2-(3-methoxyphenyl)-3-methyl-2H-indazol-7-amine .1.9HCl], the half-inhibitory concentration (IC50) with Aβ42 [1] (Homo sapiens) was 0.031 µM; in the experiment on Aβtotal [2] (Homo sapiens), more than 3 µM; in the experiment with Aβ42 [3] (Homo sapiens) it was 0.018 µM; in the experiment on Aβtotal [4] (Homo sapiens), 8.13 µM.

For the compound `COc1cc(Nc2cccc3cn(C)nc23)ccc1-n1cnc(C)c1` [Compound 9, N-[3-methoxy-4-(4-methyl-1H-imidazol-1-yl)phenyl]-2-methyl-2H-indazol-7-amine], the IC50 in the experiment with Aβ42 [1] (Homo sapiens) is 1.47 µM; in the experiment with Aβtotal [2] (Homo sapiens) it was more than 10 µM; with Aβ42 [3] (Homo sapiens), less than 3 µM; in the experiment with Aβtotal [4] (Homo sapiens), more than 3 µM.

For the compound `CCCCn1nc2c(Nc3ccc(-n4cnc(C)c4)c(OC)c3)cccc2c1C` [Compound 10, 2-butyl-N-[3-methoxy-4-(4-methyl-1H-imidazol-1-yl)phenyl]-3-methyl-2H-indazol-7-amine .2HCl], the IC50 was 0.099 µM in the experiment on Aβ42 [1], more than 3 µM with Aβtotal [2], less than 3 µM with Aβ42 [3] and more than 3 µM in the experiment with Aβtotal [4].

As for `CCCCn1cc2cc(CN)cc(Nc3ccc(-n4cnc(C)c4)c(OC)c3)c2n1` [Compound 12, 2-butyl-7-[[3-methoxy-4-(4-methyl-1H-imidazol-1-yl)phenyl]amino]-2H-indazole-5-methanamine .4HCl], the IC50 in the experiment on Aβ42 [3] is more than 3 µM.

Take `CCOc1cc(C)c(-n2nc3c(Nc4ccc(-n5cnc(C)c5)c(OC)c4)cccc3c2C)cc1C(C)C` [Compound 14, 2-[4-ethoxy-2-methyl-5-(1-methylethyl)phenyl]-N-[3-methoxy-4-(4-methyl-1H-imidazol-1-yl)phenyl]-3-methyl-2H-indazol-7-amine]: the IC50 worked out at 0.029 µM with Aβ42 [1] (Homo sapiens), 0.02 µM in the experiment with Aβ42 [3] (Homo sapiens) and 7.08 µM with Aβtotal [4] (Homo sapiens).

Turning to `COc1cc(Nc2cccc3cn(C)nc23)ccc1-n1cnc(C)n1` [Compound 17, N-[3-methoxy-4-(3-methyl-1H-1,2,4-triazol-1-yl)phenyl]-2-methyl-2H-indazol-7-amine], the IC50 with Aβ42 [3] (Homo sapiens) and with Aβtotal [4] (Homo sapiens) was more than 3 µM in each case.

For the compound `Cc1ncc(-c2ccc(Nc3cccc4cn(C5CCC5)nc34)cc2)o1` [Compound 26, 2-cyclobutyl-N-[4-(2-methyl-5-oxazolyl)phenyl]-2H-indazol-7-amine .1.2HCl], the concentration for half-maximal inhibition (IC50) in the experiment with Aβ42 [3] and in the experiment with Aβtotal [4] was more than 3 µM each time.

Compound `COCCn1cc2cccc(Nc3ccc(-c4cnc(C)o4)cc3)c2n1` [Compound 27, 2-(2-methoxyethyl)-N-[4-(2-methyl-5-oxazolyl)phenyl]-2H-indazol-7-amine .1.5HCl .1.25H2O] had an IC50 in the experiment with Aβ42 [3] of more than 3 µM.

In the experiment on Aβ42 [3], `COCCn1cc2cccc(Nc3ccc(-c4ocnc4C)c(OC)c3)c2n1` [Compound 36, 2-(2-methoxyethyl)-N-[3-methoxy-4-(4-methyl-5-oxazolyl)phenyl]-2H-indazol-7-amine .1.5HCl .0.18H2O] displayed an IC50 of more than 3 µM.

Compound `Cc1ncc(-c2ccc(Nc3cccc4cn(CC5CC5)nc34)cn2)o1` [Compound 43, 2-(cyclopropylmethyl)-N-[6-(2-methyl-5-oxazolyl)-3-pyridinyl]-2H-indazol-7-amine .2HCl] gave a concentration for half-maximal inhibition (IC50) in the experiment on Aβ42 [3] of 1.41 µM.

On to `Cc1ncc(-c2ccc(Nc3cc(F)cc4c(C)n(-c5ccc(F)cc5)nc34)cn2)o1` [Compound 47, 5-fluoro-2-(4-fluorophenyl)-3-methyl-N-[6-(2-methyl-5-oxazolyl)-3-pyridinyl]-2H-indazol-7-amine], for which the IC50 was found to be 0.035 µM in the experiment with Aβ42 [3] (Homo sapiens) and 6.92 µM in the experiment with Aβtotal [4] (Homo sapiens).

On to `COc1cc(Nc2cccc3cn(C)nc23)ccc1-c1cnc(C)s1` [Compound 49, N-[3-methoxy-4-(2-methyl-5-thiazolyl)phenyl]-2-methyl-2H-indazol-7-amine], for which the IC50 in the experiment on Aβ42 [3] (Homo sapiens) and in the experiment on Aβtotal [4] (Homo sapiens) was more than 3 µM each time.

Take `COc1cc(Nc2cccc3c(C)n(-c4ccc(F)cc4F)nc23)ccc1-c1cnc(C)s1` [Compound 50, 2-(2,4-difluorophenyl)-N-[3-methoxy-4-(2-methyl-5-thiazolyl)phenyl]-3-methyl-2H-indazol-7-amine]: the IC50 with Aβ42 [1] (Homo sapiens) was 0.865 µM; with Aβ42 [3] (Homo sapiens) it was 0.676 µM; in the experiment on Aβtotal [4] (Homo sapiens), more than 10 µM.

Regarding `COc1cccc(-n2nc3c(Nc4ccc(-c5ccnn5C)cc4)cccc3c2C)c1` [Compound 53, 2-(3-methoxyphenyl)-3-methyl-N-[4-(1-methyl-1H-pyrazol-5-yl)phenyl]-2H-indazol-7-amine .2HCl .0.5H2O], the IC50 in the experiment on Aβ42 [3] is 0.631 µM; with Aβtotal [4] it was more than 10 µM.

`Cc1cn(-c2ccc(Nc3cncc4cn(CC(F)(F)F)nc34)cc2F)cn1` [Compound 55, N-[3-fluoro-4-(4-methyl-1H-imidazol-1-yl)phenyl]-2-(2,2,2-trifluoroethyl)-2H-pyrazolo[4,3-c]pyridin-7-amine]: the half-inhibitory concentration (IC50) is 0.603 µM in the experiment with Aβ42 [3] (Homo sapiens) and more than 10 µM in the experiment with Aβtotal [4] (Homo sapiens).

In the case of `COc1cc(Nc2cc(C(C)C)nc3cn(CC(F)(F)F)nc23)ccc1-n1cnc(C)n1` [Compound 56, N-[3-methoxy-4-(3-methyl-1H-1,2,4-triazol-1-yl)phenyl]-5-(1-methylethyl)-2-(2,2,2-trifluoroethyl)-2H-pyrazolo[4,3-b]pyridin-7-amine], the results for the IC50 with Aβ42 [3] (Homo sapiens) and in the experiment with Aβtotal [4] (Homo sapiens) were 0.708 µM and more than 10 µM, respectively.
